Experiments:
[1] = test system: Ishikawa cells; test: Trans-well migration assay; type: cell-based, human; details: 24 hr, through collagen towards 30% FBS, vs DMSO
Procedure: We next asked if PME-1 inhibition led to decreased cell migration by completing a trans-well migration assay. Cells were synchronized for 24 hours in media containing 0% FBS. For this experiment, DMSO was again used as the vehicle control and Ishikawa cells were treated with DMSO (control) or 50 nM ABL-127 or 20 μM AMZ-30 for 24 hr and were allowed to migrate through a collagen-coated well towards the bottom chamber, containing media with 30% FBS.
The assay was completed with ECC-1 endometrial carcinoma cell lines following kit instructions Cultrex 96 Well Collagen IV Cell Invasion Assay (cat #3458-096-K). Briefly, cells were serum starved for 24 hours prior to experimentation, then counted and put into the top chamber of a collagen type IV coated Transwell membrane at a concentration of 1×10^6 cells/well in 0% FBS. The bottom chamber contained 30% FBS. Cells were allowed to invade at 37° C. humid chamber incubator for 24 hours. Cells that invaded were analyzed using the kit provided Calcein-AM and fluorescence was read using FluoStar Galaxy.

[2] = target: T1, recombinant PME-1_des3 (Homo sapiens, UniProt Q9Y570); test: Thermal melt (thermal shift) assay; type: binding
T1 sequence (Q9Y570 1-383 limits assumed): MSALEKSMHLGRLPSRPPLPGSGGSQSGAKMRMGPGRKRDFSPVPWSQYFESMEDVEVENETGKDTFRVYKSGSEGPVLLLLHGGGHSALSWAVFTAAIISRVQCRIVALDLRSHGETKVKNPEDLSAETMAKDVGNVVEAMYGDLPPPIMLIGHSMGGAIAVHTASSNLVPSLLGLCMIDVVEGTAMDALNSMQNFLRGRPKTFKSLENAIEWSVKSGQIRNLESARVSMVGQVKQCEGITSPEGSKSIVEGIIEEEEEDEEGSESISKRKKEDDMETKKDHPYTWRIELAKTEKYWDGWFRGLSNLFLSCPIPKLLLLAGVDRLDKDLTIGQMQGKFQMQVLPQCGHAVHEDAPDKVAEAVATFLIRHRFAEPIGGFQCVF
Procedure: There are several commercially available covalent PME-1 inhibitors that we have analyzed as potential endometrial cancer therapeutics. To confirm that the inhibitors directly bind PME-1, we completed a thermal melt assay. One micromole (1 μmole) of recombinant PME-1_des3, of which the last 3 amino acids are deleted, were pre-incubated with SYBR orange in the presence of 50 μM ABL-127 (a potent covalent PME-1 inhibitor, squares) or 0.05% DMSO (vehicle, circles) for 10 minutes (FIG. 25) at 37° C. We then performed a thermal gradient, increasing the temperature by 2° C. each minute from 37° C. to 95° C. and fluorescent signal was detected at 492-601 nm on a thermal cycler. The increase in Tm from ˜55° C. (PME-1+DMSO, circles) to ˜65° C. (PME-1+ABL-127, squares) indicated thermal stabilization of the PME-1 protein via direct binding of the ABL-127 inhibitor (FIG. 25).
The assay was completed by first conducting a 10 min pre-incubation of one μmole of recombinant PME-1des3 with 50 μM ABL127 (Sigma) or vehicle (0.05% DMSO) in the presence of SYBR Orange (1:1,000, v/v, Sigma) at 37° C. in 1×NEB buffer 2 (50 mM NaCl, 10 mM Tris-HCl, 10 mM MgCl2, 1 mM DTT, pH 7.9 at 25° C.), a thermal gradient was performed increasing temperature by 2° C. per minute increments from 37° to 95° C. and fluorescence (492 nm-610 nm) was acquired on a thermal cycler Mx3005P (Stratagene).

[3] = test system: Ishikawa endometrial cancer cells; test: Foci formation assay in Ishikawa cells; type: cell-based, human; details: DMSO set to 100%
Procedure: This study was completed in Ishikawa endometrial cancer cells.
1,000 cells were plated in a six well tissue culture dish in selection media (to include 5 μg/ml puromycin) (InvivoGen). Cells were allowed to adhere and grow in a 5% CO2, 37° C. incubator for 10 to 14 days. […] Cells were stained with 1% crystal violet (Sigma Aldrich) for five minutes and rinsed with PBS. Colonies were counted and data is presented as the percentage of change compared to the control. All Experiments were repeated at least three times.

[4] = target: protein phosphatase 2A (PP2A), endogenous in RL95-2 cells; test: cell-based or functional assay
[5] = test system: RL95-2 cells; test: Foci forming assay in RL95-2 cells; type: cell-based, human
Procedure: A foci forming assay was used in this study to monitor cell growth. Equal amounts of cells were plated and they were allowed to grow for a determined period of time (see Materials and Methods section for details). The foci that were formed were then stained with the crystal violet dye. Cells were washed […] with PBS prior to visualization. Numbers of foci were counted and results were averaged among different experiments.
To determine if the loss of active PME-1 accounted for the observed decrease in foci formation, we first treated RL95-2 cells with siRNA against the 3′-UTR of PPME1 to decrease endogenous levels of PME-1. […] The S156A PME-1 mutant is not capable of demethylating its target, PP2A.
1,000 cells were plated in a six well tissue culture dish in selection media (to include 5 μg/ml puromycin) (InvivoGen). Cells were allowed to adhere and grow in a 5% CO2, 37° C. incubator for 10 to 14 days. Media was replaced every fourth day. Cells were stained with 1% crystal violet (Sigma Aldrich) for five minutes and rinsed with PBS. Colonies were counted and data is presented as the percentage of change compared to the control. All Experiments were repeated at least three times.

[6] = test system: RL95-2 cells; test: Colony forming / invasive growth assay in Matrigel; type: cell-based, human; details: RL95-2 in Matrigel, addition of TGF-β (10 ng/ml)
Procedure: To determine if PME-1 contributes to the more invasive and metastatic phenotypes, we performed a colony forming assay in matrigel.
The 3D On Top Matrigel Assay was completed in 24 well dishes as described previously {Lee, 2007 #1577}. Briefly, the bottoms of 24 well dishes were coated with 50 μl BD Matrigel Basement Matrix Phenol Red Free (BD Biosciences cat. #356237) and allowed to solidify at 37° C. 10^5 cells were suspended in 250 μl chilled medium containing either 10 ng/ml of TGF-b or vehicle and allowed to settle at 37° C. for 30 minutes. Chilled medium containing 10% of Matrigel was added by pipetting gently down the sidewall of the well and incubated at 37° C. for ten days changing top medium every second day. Colony counts were performed on the tenth day, averages were taken from three fields of view using a 10× objective. Experiment was repeated three times.

[7] = test system: PPME1; test: qRT-PCR of PPME1 (PME-1) expression in RL95-2 cells; type: cell-based, human; details: TGF-β 24 hours, control cells and +PME-1 cells, normalized to GAPDH
Procedure: In this study, we transfected RL95-2 cells to express empty vector (Control), over-expressing PME-1 (+PME-1) or expressing shRNA against PME-1 (−PME-1) followed by serum starvation for 24 hours. Afterwards, either vehicle or TGF-β treatment was performed at the end of the 24 hours. TGF-β was used to induce cells to initiate the EMT program. Gene expression analysis was conducted using quantitative real-time PCR.
Using RL95-2 endometrial cancer cells, we overexpressed PME-1 (FIG. 21A) or depleted PME-1 with shRNA (FIG. 21B) and confirmed that PME-1 was appropriately expressed.
Total RNA was extracted with Qiagen RNAEasy kit from RL95-2 cells. cDNA was synthesized using 500 ng-1 μg of RNA and SuperScript VILO c-DNA mix (Life Technologies). Taqman probes and PCR-mix were purchased from Life Technologies. All samples were run in triplicates. Results are representative of three independent experiments in which genes of interest were normalized to the house-keeping gene, 18S or GAPDH, where fold-change was calculated using the ddCt method.

[8] = test system: PME-1; test: Western blot of PME-1 protein in RL95-2 cells; type: cell-based, human; details: GAPDH loading control
Excerpt: We prepared RL95-2 cell lines expressing empty vector (control), over-expressing PME-1 (+PME-1), or expressing shRNA against PPME1, the gene that codes for PME-1 protein (−PME-1). Using these cells, we confirmed the appropriate level of PME-1 via real-time RT-PCR (data not shown) and Western blot analysis (FIG. 8). GAPDH was used as a loading control.
We also prepared two different shRNAs targeted against PME-1.
Lentivirus was produced in HEK293T cell lines with pLKO shRN vectors (Thermo Scientific, cat. no. RHS4533; Waltham, Mass.) and pCDH-CuO-GFP-Puro vectors (System Biosciences, Inc., cat. no. QM513B-1; Mountain View, Calif.) with pPACKH1 packaging plasmid (System Biosciences, Inc., cat, no. LV050A-1). shRNA sequences are in the Table 2. Lentivirus was collected and concentrated with Peg-IT concentrating solution (System Biosciences, Inc.). 5×10^6 ifu/ml lentivirus was added to cell cultures with growth media and 8 μg/ml PolyBrene (Sigma Aldrich). Media was changed to full growth media after 24 hrs and to selection media containing antibiotic after 48 hrs (5 μg/ml puromycin) (Invivogen) for 10 days.
15 μg of protein was used for western analysis. […]

COC(=O)N1C(=O)C(c2ccccc2)(C2CCCC2)N1C(=O)OC (stereo in doubt) [ABL-127, (3R)-Dimethyl 3-cyclopentyl-4-oxo-3-phenyl-1,2-diazetidine-1,2,-dicarboxylate]
percentage of cells capable of migrating ([1]; 50 nM): dramatic decrease
Tm ([2]; 50 μM ABL-127, 10 min pre-incubation at 37° C., PME-1+DMSO ˜55° C.): ~65 °C
melting temperature (Tm) and thermal stability of PME-1 ([2]; binding of ABL-127 vs vehicle): increases
decrease in the amount of foci formed ([3]; 50 nM every 2-3 days for 10 days): ~50%

N#C/C(=C\c1cccn1S(=O)(=O)c1cccc([N+](=O)[O-])c1)S(=O)(=O)c1ccc(F)cc1 [AMZ-30, (E)-2-(4-Fluorophenylsulfonyl)-3-(1-(3-nitrophenylsulfonyl)-1H-pyrrol-2-yl)-acrylonitrile]
percentage of cells capable of migrating ([1]; 20 μM): dramatic decrease
decrease in the amount of foci formed ([3]; 25 μM every 2-3 days for 10 days): ~50%

PME-1 (endogenous, RL95-2 cells) (from UniProt Q9Y570 2-386) (enzyme)
PP2A activity (phosphatase assay) after shRNA depletion of PME-1 in RL95-2 cells [4]: 30 fold

PME-1 over-expressed in RL95-2 cells (+PME-1) (from UniProt Q9Y570 1-386) (enzyme)
PP2A activity (phosphatase assay) after over-expression of PME-1 in RL95-2 cells [4]: 90 % decrease

PPME1 siRNA no. 2: siRNA, SEQ ID NO: 5: GTG GAT AGC ATC ACA AGA A, targets 3′-UTR (guide GTGGATAGCATCACAAGAA; listed as DNA, chemistry not given here; listed as Homo sapiens)
decrease in foci formed ([5]; RL95-2, siRNA followed by empty vector, vs control siRNA with empty vector): 40%
reduction in foci formation ([5]; RL95-2, siRNA plus over-expressed S156A mutant PME-1): 40%

TGF-β [reference compound]
colony number [6]: overall decrease
increase in PME-1 expression [7]: ~2 fold

shPPME1 no. 1: shRNA targeting PPME1, SEQ ID NO: 1: GTACAGCTATGGATGCACTTA, bp 554-574 (guide GTACAGCTATGGATGCACTTA; listed as Homo sapiens)
PME-1 levels via Western blot analysis [8]: significantly decreased
